Assay [1] has as its system pathogen of muskmelon gummy stem blight. Briefly: Plate experiment of inhibitory effect on pathogen of muskmelon gummy stem blight (PDA medium). Conditions: allantoin aqueous solution 700 mg/L and 1050 mg/L smeared on PDA plates, 7 days, 28° C. Format: cell-based. As for the experimental part: Based on the purpose of study, the inventor designed a plate experiment. Considering that powdery mildew is a living parasitic fungi and can only grow and reproduce on living plants, a PDA medium cannot be used for culturing, so that pathogen of muskmelon gummy stem blight is used for experiment. The specific experiment method is as follows: a PDA medium was prepared and poured into plates; equal amounts of an allantoin aqueous solution with the concentration of 700 mg/L, an allantoin aqueous solution with the concentration of 1050 mg/L and sterile water were respectively smeared on three plates, and then a bacterial cake of the pathogen of muskmelon gummy stem blight was inoculated in the center of each plate; the plates were cultured for 7 days under 28° C., and the growth of the pathogen of muskmelon gummy stem blight in the three plates was observed.

In a further assay the test system is muskmelon powdery mildew. Briefly: Resistance to powdery mildew of muskmelon plants sprayed with allantoin aqueous solution and inoculated with spore suspension (greenhouse). Type of assay: in vivo, Podosphaera xanthii. Conditions: for plant morbidity: inoculated 24 h after first spraying. As for the experimental part: Preparation and inoculation of pathogen spore suspension of muskmelon powdery mildew:
Muskmelon leaves with severe powdery mildew were randomly selected from the field, and conidia were transferred to a beaker containing sterile water by a brush and uniformly stirred to obtain the spore suspension of powdery mildew. Spore concentration was measured under an optical microscope by using a blood counting chamber, and the concentration of the spore suspension was adjusted to be 1×10^6spores/mL for later use, which was used for inoculation tests. It was identified that this bacterial suspension was the bacterial suspension of muskmelon powdery mildew.
Muskmelon seedlings were planted in a greenhouse in June. When the muskmelon seedlings grown to the spreading stage, they were divided into a blank group, a pathogen inoculation group, a negative control group and an experimental group. […] The negative control group was sprayed with the sterile water at 5:00 pm to 6:00 pm, spraying was carried out once every three days, and the spraying amount of each time was the same as that of the aqueous solution containing allantoin in the experimental group. 24 hours after the first spraying of the allantoin water solution in the experimental group, the negative control group, the pathogen inoculation group and the experimental group were inoculated with the spore suspension of powdery mildew obtained above after the solution on the leaves was evaporated. After the pathogen inoculation group was infected with powdery mildew, the resistance to powdery mildew of the experimental group and the negative control group was observed (as shown in FIG. 1A-B), and the disease index, morbidity and control efficiency of the experimental group were calculated.
Leaf morphology was graded according to the response of the muskmelon leaves infected with powdery mildew. Grade 0: no infection; grade 1: no obvious infection; grade 2: mild infection; grade 3: moderate infection; grade 4: severe infection; and grade 5: whole-leaf infection. Disease index=sum of disease grade numbers of all leaves of an individual plant/number of leaves of the individual plant×the highest disease grade of the leaves of the individual plant Morbidity=number of infected individual plants/total number of investigated individual plants×100% Control efficiency=number of uninfected individual plants/total number of investigated individual plants×100%
Muskmelon seedlings were planted in a greenhouse in June. When the muskmelon seedlings grown to the three-leaves and one-bud stage, they were divided into a blank group, a pathogen inoculation group, a negative control group and an experimental group. The muskmelon leaves in the experimental group were sprayed with an aqueous solution containing allantoin with the concentration of 1050 mg/L at 5:00 pm to 6:00 pm, spraying was carried out once every three days, and a medicament was uniformly covered on the leaves for each time of spraying. The negative control group was sprayed with the sterile water at 5:00 pm to 6:00 pm, spraying was carried out once every three days, and the spraying amount of each time was the same as that of the aqueous solution containing allantoin in the experimental group. 24 hours after the first spraying of the allantoin water solution in the experimental group, the negative control group, the pathogen inoculation group and the experimental group were inoculated with the spore suspension of powdery mildew obtained above after the solution on the leaves was evaporated. After the pathogen inoculation group was infected with powdery mildew, the resistance to powdery mildew of the experimental group was observed (as shown in FIG. 2A-B), and the disease index, morbidity and control efficiency of the experimental group were calculated.

Where [2] appears, read: Example 3: 700 mg/L allantoin aqueous solution sprayed on leaves once every three days, spreading stage.
Setting [3] is: Example 4: 1050 mg/L allantoin aqueous solution sprayed on leaves once every three days, three-leaves and one-bud stage.

SMILES strings stand for the structures.

As for `NC(=O)NC1NC(=O)NC1=O` (stereo not shown) [allantoin], the “growth of the pathogen of muskmelon gummy stem blight on plate” value in assay [1] is “does not inhibit the growth”. Moreover, the control efficiency with muskmelon powdery mildew (setting [2]) and in the assay on muskmelon powdery mildew (setting [3]) was 100% in each case. The disease index with muskmelon powdery mildew (setting [2]) and in the assay on muskmelon powdery mildew (setting [3]) was 0 throughout. Also, the plant morbidity came to 0% in the assay with muskmelon powdery mildew (setting [2]); 0% in the assay on muskmelon powdery mildew (Example 4: 1050 mg/L allantoin aqueous solution sprayed on leaves once every three days, three-leaves and one-bud (seedling) stage). In addition, the “powdery mildew spots on the leaves” value in the assay with muskmelon powdery mildew (Example 3: 700 mg/L allantoin aqueous solution, spreading stage (FIG. 1A)) is given as “no powdery mildew spot is generated on the leaves”; with muskmelon powdery mildew (Example 4: 1050 mg/L allantoin aqueous solution, three-leaves and one-bud stage (FIG. 2)) it was “no powdery mildew spot is generated on the leaves”. Besides, in the assay on muskmelon powdery mildew (aqueous solution containing allantoin sprayed on leaves in the spreading stage or the three-leaves and one-bud stage), the “control efficiency (summary statement)” value was at most 100%.
